Reference: patent US10072001B2, “Tank-binding kinase inhibitor compounds” (Gilead Sciences, Inc., priority 2014, dated 2018)

Key:
IKKε = IKKε (Homo sapiens (Human), UniProt Q14164); experiment: TR-FRET kinase assay, IKKε; type: biochemical; conditions: full length recombinant IKKε 0.3 nM, 2x Km ATP, 1 μM peptide, 240 min at 25° C.; geometric mean of minimum four determinations
Description: Biological Assay for TBK1 and IKKs:

TBK1 = TBK1 (Homo sapiens (Human), UniProt Q9UHD2); experiment: TR-FRET kinase assay, TBK1; conditions: read-out: TBK1-IC50; full length recombinant TBK1 2.5 nM, 2x Km ATP, 1 μM peptide, 240 min at 25° C.; geometric mean of minimum four determinations
TBK1, sequence (Q9UHD2 whole entry): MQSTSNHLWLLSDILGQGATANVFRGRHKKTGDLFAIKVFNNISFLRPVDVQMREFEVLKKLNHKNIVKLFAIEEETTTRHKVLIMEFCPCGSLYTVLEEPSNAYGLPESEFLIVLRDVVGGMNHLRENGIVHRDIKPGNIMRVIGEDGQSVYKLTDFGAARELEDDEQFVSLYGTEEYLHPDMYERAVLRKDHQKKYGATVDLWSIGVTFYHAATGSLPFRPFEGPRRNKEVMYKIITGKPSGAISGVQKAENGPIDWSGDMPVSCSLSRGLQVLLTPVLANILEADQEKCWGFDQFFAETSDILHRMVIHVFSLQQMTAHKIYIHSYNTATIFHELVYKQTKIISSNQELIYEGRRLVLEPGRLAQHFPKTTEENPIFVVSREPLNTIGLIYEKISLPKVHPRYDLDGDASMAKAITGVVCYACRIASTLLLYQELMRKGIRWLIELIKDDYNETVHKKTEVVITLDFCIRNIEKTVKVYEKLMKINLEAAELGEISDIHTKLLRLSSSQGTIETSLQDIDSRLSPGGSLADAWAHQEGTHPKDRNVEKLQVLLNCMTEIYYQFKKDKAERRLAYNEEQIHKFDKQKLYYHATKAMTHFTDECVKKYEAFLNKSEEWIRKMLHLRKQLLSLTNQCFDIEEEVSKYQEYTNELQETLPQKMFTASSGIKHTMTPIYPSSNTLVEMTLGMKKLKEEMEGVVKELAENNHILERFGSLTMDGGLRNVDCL
Description: Enzymatic activity of IKKε and TBK1 was measured using a homogeneous time resolved fluorescence resonance energy transfer (TR-FRET) assay that monitors enzyme dependent phosphorylation of a biotinylated serine/threonine peptide substrate. […] TBK1 and IKKs were expressed and purified as full length recombinant proteins. Detection reagents for the assay were purchased from Cisbio. […] After an assay reaction time of 240 minutes at 25° C., reactions were terminated with EDTA.
Amount of phosphorylated peptide was determined by the addition of 125 nM streptavidin XL665 and europium cryptate labeled anti-phospho monoclonal antibody and the resulting TR-FRET signal was recorded on an Envision plate reader (Ex: 340 nm; Em: 615/665 nm; 100 μs delay and 200 μs read window). […] All IC50 values represent geometric mean values of a minimum of four determinations.

IKKε, sequence (Q14164 whole entry): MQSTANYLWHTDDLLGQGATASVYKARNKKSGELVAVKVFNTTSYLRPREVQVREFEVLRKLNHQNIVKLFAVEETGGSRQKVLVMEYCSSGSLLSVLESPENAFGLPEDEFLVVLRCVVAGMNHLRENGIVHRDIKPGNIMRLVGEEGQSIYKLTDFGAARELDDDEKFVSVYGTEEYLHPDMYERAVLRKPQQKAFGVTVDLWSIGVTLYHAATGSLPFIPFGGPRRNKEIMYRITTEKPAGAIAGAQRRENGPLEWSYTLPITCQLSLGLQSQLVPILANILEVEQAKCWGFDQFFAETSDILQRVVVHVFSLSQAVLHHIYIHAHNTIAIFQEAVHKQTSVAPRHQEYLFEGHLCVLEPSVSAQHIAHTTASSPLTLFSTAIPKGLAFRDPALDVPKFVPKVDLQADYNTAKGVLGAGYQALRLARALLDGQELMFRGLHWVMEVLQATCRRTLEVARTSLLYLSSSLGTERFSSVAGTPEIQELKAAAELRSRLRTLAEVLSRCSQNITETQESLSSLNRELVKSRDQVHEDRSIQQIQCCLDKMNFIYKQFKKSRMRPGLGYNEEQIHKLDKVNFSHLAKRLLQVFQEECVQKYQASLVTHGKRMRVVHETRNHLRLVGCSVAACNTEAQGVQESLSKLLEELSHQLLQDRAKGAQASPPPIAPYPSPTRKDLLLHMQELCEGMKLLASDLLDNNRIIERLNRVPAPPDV

Row | IC50 (IKKε) | IC50 (TBK1) | Compound
1 | 2.68 nM | 1.48 nM | N#Cc1cc(-c2ncnc3[nH]c(-c4ccc(C(=O)N5CCCC5)cc4)cc23)ccc1OC1CCN(C(=O)CO)CC1 [Example 162, 2-((1-(2-Hydroxyacetyl)piperidin-4-yl)oxy)-5-(6-(4-(pyrrolidine-1-carbonyl)phenyl)-7H-pyrrolo[2,3-d]pyrimidin-4-yl)benzonitrile]
2 | 1.8 nM | 1.78 nM | N#Cc1cc(-c2ncnc3[nH]c(-c4ccc(C(=O)NC5COC5)cc4)cc23)ccc1OC1CCN(C(=O)CO)CC1 [Example 163, 4-(4-(3-Cyano-4-((1-(2-hydroxyacetyl)piperidin-4-yl)oxy)phenyl)-7H-pyrrolo[2,3-d]pyrimidin-6-yl)-N-(oxetan-3-yl)benzamide]
3 | 95.1 nM | 56.1 nM | N#Cc1cc(-c2ncnc3[nH]c(-c4ccc(N5CCOCC5)cc4)cc23)ccc1OC1CC2(COC2)C1 [Example 164, 2-(2-Oxaspiro[3.3]heptan-6-yloxy)-5-(6-(4-morpholinophenyl)-7H-pyrrolo[2,3-d]pyrimidin-4-yl)benzonitrile]
4 | 15.7 nM | 13.7 nM | N#Cc1cc(-c2ncnc3[nH]c(-c4ccc(CC(=O)O)cc4)cc23)ccc1OC1CCOCC1 [Example 168, 2-(4-(4-(3-Cyano-4-((tetrahydro-2H-pyran-4-yl)oxy)phenyl)-7H-pyrrolo[2,3-d]pyrimidin-6-yl)phenyl)acetic acid]
5 | 13.2 nM | 4.8 nM | COC(C)(C)c1ccc(-c2cc3c(-c4cc(C#N)c(OC5CCOCC5)cn4)ccnc3[nH]2)cc1 [Example 169, 2-(2-(4-(2-Methoxypropan-2-yl)phenyl)-1H-pyrrolo[2,3-b]pyridin-4-yl)-5-((tetrahydro-2H-pyran-4-yl)oxy)isonicotinonitrile]
6 | 8.18 nM | 3.84 nM | CC(C)(O)c1ccc(-c2cc3c(-c4cc(C#N)c(OC5CCOCC5)cn4)ccnc3[nH]2)cc1 [Example 170, 2-(2-(4-(2-Hydroxypropan-2-yl)phenyl)-1H-pyrrolo[2,3-b]pyridin-4-yl)-5-((tetrahydro-2H-pyran-4-yl)oxy)isonicotinonitrile]
7 | 10.6 nM | 6.4 nM | N#Cc1cc(-c2ncnc3[nH]c(-c4cccc(C(N)=O)c4)cc23)ccc1OC1CCOCC1 [Example 171, 3-(4-(3-cyano-4-((tetrahydro-2H-pyran-4-yl)oxy)phenyl)-7H-pyrrolo[2,3-d]pyrimidin-6-yl)benzamide]
8 | 260 nM | 30.2 nM | COc1cc(-c2cc3c(-c4ccc(OC5CCOCC5)c(C#N)c4)c(F)cnc3[nH]2)ccc1N1CCOCC1 [Example 172, 5-(5-fluoro-2-(3-methoxy-4-morpholinophenyl)-1H-pyrrolo[2,3-b]pyridin-4-yl)-2-((tetrahydro-2H-pyran-4-yl)oxy)benzonitrile]
9 | 115 nM | 15.6 nM | CC(C)(O)c1ccc(-c2cc3c(-c4ccc(OC5CCOCC5)c(C#N)c4)c(F)cnc3[nH]2)cc1 [Example 173, 5-(5-fluoro-2-(4-(2-hydroxypropan-2-yl)phenyl)-1H-pyrrolo[2,3-b]pyridin-4-yl)-2-((tetrahydro-2H-pyran-4-yl)oxy)benzonitrile]
10 | 8.3 nM | 6.35 nM | N#Cc1cc(-c2c(F)cnc3[nH]c(-c4ccc(OCCN5CCCC5)cc4)cc23)ccc1OC1CCOCC1 [Example 174, 5-(5-fluoro-2-(4-(2-(pyrrolidin-1-yl)ethoxy)phenyl)-1H-pyrrolo[2,3-b]pyridin-4-yl)-2-((tetrahydro-2H-pyran-4-yl)oxy)benzonitrile]
11 | 1.44 nM | 1.81 nM | N#Cc1cc(-c2ccnc3[nH]c(-c4ccc(N5CCN(C6COC6)CC5)cc4)cc23)ncc1OC1CCN(C(=O)CO)CC1(F)F (stereo not shown) [Example 176, 5-((3,3-difluoro-1-(2-hydroxyacetyl)piperidin-4-yl)oxy)-2-(2-(4-(4-(oxetan-3-yl)piperazin-1-yl)phenyl)-1H-pyrrolo[2,3-b]pyridin-4-yl)isonicotinonitrile]
12 | 1000 nM | 33.5 nM | N#Cc1cc(-c2ccnc3[nH]c(-c4ccc(-n5cccn5)cc4)cc23)ccc1OC1CCOCC1 [Example 177, 5-(2-(4-(1H-pyrazol-1-yl)phenyl)-1H-pyrrolo[2,3-b]pyridin-4-yl)-2-((tetrahydro-2H-pyran-4-yl)oxy)benzonitrile]
13 | 18.3 nM | 7.82 nM | N#Cc1cc(-c2ccnc3[nH]c(C4=CCN(C5COC5)C4)cc23)ccc1OC1CCOCC1 [Example 178, 5-(2-(1-(oxetan-3-yl)-2,5-dihydro-1H-pyrrol-3-yl)-1H-pyrrolo[2,3-b]pyridin-4-yl)-2-((tetrahydro-2H-pyran-4-yl)oxy)benzonitrile]
14 | 69.8 nM | 103 nM | CN(C)C(=O)/C=C/c1cc2c(-c3ccc(OC4CCOCC4)c(C#N)c3)ccnc2[nH]1 [Example 179, 3-(4-(3-cyano-4-((tetrahydro-2H-pyran-4-yl)oxy)phenyl)-1H-pyrrolo[2,3-b]pyridin-2-yl)-N,N-dimethylacrylamide]
15 | 20.7 nM | 3.1 nM | N#Cc1cc(-c2ccnc3[nH]c(C4=CCC5(CC4)OCCO5)cc23)ccc1OC1CCOCC1 [Example 180, 5-(2-(1,4-dioxaspiro[4.5]dec-7-en-8-yl)-1H-pyrrolo[2,3-b]pyridin-4-yl)-2-((tetrahydro-2H-pyran-4-yl)oxy)benzonitrile]
16 | 34.8 nM | 23.9 nM | Cn1nccc1-c1cc2c(-c3ccc(OC4CCOCC4)c(C#N)c3)ccnc2[nH]1 [Example 181, 5-(2-(1-methyl-1H-pyrazol-5-yl)-1H-pyrrolo[2,3-b]pyridin-4-yl)-2-((tetrahydro-2H-pyran-4-yl)oxy)benzonitrile]
17 | 35.5 nM | 14.8 nM | N#Cc1cc(-c2ccnc3[nH]c(C4=CCN(C(=O)CO)C4)cc23)ccc1OC1CCOCC1 [Example 182, 5-(2-(1-(2-hydroxyacetyl)-2,5-dihydro-1H-pyrrol-3-yl)-1H-pyrrolo[2,3-b]pyridin-4-yl)-2-((tetrahydro-2H-pyran-4-yl)oxy)benzonitrile]
18 | 34.7 nM | 18.9 nM | N#Cc1cc(-c2ncnc3[nH]c(-c4ccc(=O)[nH]c4)cc23)ccc1OC1CCOCC1 [Example 183, 5-(6-(6-oxo-1,6-dihydropyridin-3-yl)-7H-pyrrolo[2,3-d]pyrimidin-4-yl)-2-((tetrahydro-2H-pyran-4-yl)oxy)benzonitrile]
19 | 3.43 nM | 4.99 nM | N#Cc1cc(-c2ncnc3[nH]c(-c4cccc(CN5CCOCC5)c4)cc23)ccc1OC1CCN(C(=O)CO)CC1 [Example 184, 2-((1-(2-hydroxyacetyl)piperidin-4-yl)oxy)-5-(6-(3-(morpholinomethyl)phenyl)-7H-pyrrolo[2,3-d]pyrimidin-4-yl)benzonitrile]
20 | 5.39 nM | 1.33 nM | N#Cc1cc(-c2ncnc3[nH]c(-c4ccc(C(=O)N5CCCC5)cc4)cc23)ccc1OC1CCOCC1 [Example 185, 5-(6-(4-(pyrrolidine-1-carbonyl)phenyl)-7H-pyrrolo[2,3-d]pyrimidin-4-yl)-2-((tetrahydro-2H-pyran-4-yl)oxy)benzonitrile]
21 | 4.96 nM | 1.62 nM | N#Cc1cc(-c2ncnc3[nH]c(-c4ccc(C(=O)N5CCOCC5)cc4)cc23)ccc1OC1CCOCC1 [Example 186, 5-(6-(4-(morpholine-4-carbonyl)phenyl)-7H-pyrrolo[2,3-d]pyrimidin-4-yl)-2-((tetrahydro-2H-pyran-4-yl)oxy)benzonitrile]
22 | 1.88 nM | 1.16 nM | CN1CCN(C(=O)c2ccc(-c3cc4c(-c5ccc(OC6CCOCC6)c(C#N)c5)ncnc4[nH]3)cc2)CC1 [Example 187, 5-(6-(4-(4-methylpiperazine-1-carbonyl)phenyl)-7H-pyrrolo[2,3-d]pyrimidin-4-yl)-2-((tetrahydro-2H-pyran-4-yl)oxy)benzonitrile]
23 | 8.46 nM | 1.69 nM | CC1(C)C(=O)Nc2cc(-c3cc4c(-c5ccc(OC6CCOCC6)c(C#N)c5)ncnc4[nH]3)ccc21 [Example 188, 5-(6-(3,3-dimethyl-2-oxoindolin-6-yl)-7H-pyrrolo[2,3-d]pyrimidin-4-yl)-2-((tetrahydro-2H-pyran-4-yl)oxy)benzonitrile]
24 | 7.99 nM | 4.36 nM | N#Cc1cc(-c2ncnc3[nH]c(-c4cnc5c(c4)NCCO5)cc23)ccc1OC1CCOCC1 [Example 189, 5-(6-(2,3-dihydro-1H-pyrido[2,3-b][1,4]oxazin-7-yl)-7H-pyrrolo[2,3-d]pyrimidin-4-yl)-2-((tetrahydro-2H-pyran-4-yl)oxy)benzonitrile]
25 | 14.1 nM | 7.91 nM | Cc1ncc(-c2cc3c(-c4ccc(OC5CCOCC5)c(C#N)c4)ncnc3[nH]2)s1 [Example 190, 5-(6-(2-methylthiazol-5-yl)-7H-pyrrolo[2,3-d]pyrimidin-4-yl)-2-((tetrahydro-2H-pyran-4-yl)oxy)benzonitrile]
26 | 12.7 nM | 5.09 nM | N#Cc1cc(-c2ncnc3[nH]c(-c4ccc5c(c4)NCCO5)cc23)ccc1OC1CCOCC1 [Example 191, 5-(6-(3,4-dihydro-2H-benzo[b][1,4]oxazin-6-yl)-7H-pyrrolo[2,3-d]pyrimidin-4-yl)-2-((tetrahydro-2H-pyran-4-yl)oxy)benzonitrile]
27 | 1000 nM | 275 nM | CS(=O)(=O)c1ccc(-c2ccnc3[nH]c(-c4ccc(N5CCOCC5)cc4)cc23)cc1C#N [Example 192, 2-(methylsulfonyl)-5-(2-(4-morpholinophenyl)-1H-pyrrolo[2,3-b]pyridin-4-yl)benzonitrile]
28 | 15.5 nM | 3.33 nM | N#Cc1cc(-c2ccnc3[nH]c(-c4ccc(N5CCOCC5)cc4)cc23)ccc1N1CC(O)C1 [Example 193, 2-(3-hydroxyazetidin-1-yl)-5-(2-(4-morpholinophenyl)-1H-pyrrolo[2,3-b]pyridin-4-yl)benzonitrile]
29 | 564 nM | 298 nM | N#Cc1cc(-c2ncnc3[nH]c(Nc4cccc(N5CCOCC5)c4)nc23)ccc1OC1CCOCC1 [Example 194, 5-(8-((3-morpholinophenyl)amino)-9H-purin-6-yl)-2-((tetrahydro-2H-pyran-4-yl)oxy)benzonitrile]
